Measurements taken from US4822823A, “Aqueous preparation and method of preparation thereof” (priority 1986, dated 1989).
“Also recorded” adds a separate entry of the source. Read-outs that look alike come from different tables or passages of the source. Blank lines part the entries; values can stand above or below the molecule they belong to.

Tests used:
[1] = test system: production of SRS-A or LTB4; conditions: cited from earlier work
[2] = test system: experimental allergic asthma; conditions: IgG and IgE, Guinea pigs; cited from earlier work
[3] = 25° C.; cited from earlier work
5-riboxygenase = conditions: cited from earlier work
[4] = Stability test of compound (A) with α-cyclodextrin at varying pHs; format: physicochemical
Description: Stability test of compound (A) was performed in the following formula at varying pHs: […]
Purified Water amount totaling 1000 ml
Note: The data are represented in terms of persistence rate (%).

[5] = test system: experimental allergic asthma; conditions: IgE, rats; cited from earlier work
[6] = for enhancement of solubility of compound (A) (in words): phosphoric acid buffer pH 6.0
Description: The dissolution-assisting agents used as a control are β-cyclodextrin, γ-cyclodextrin, polyvinyl pyrrolidone (hereinbelow abbreviated as PVP), polyoxyethylene monostearate (hereinbelow abbreviated as MYS-40), polyoxyethylene sorbitan monooleate (hereinbelow abbreviated as TO-80), and polyoxyethylene cured castor oil (hereinbelow abbreviated as HCO-40, HCO-60).
Solubility was determined by dissolving the respective dissolution-assisting agents into 0.2 mole of phosphoric acid buffer solution (Na2 HPO4 NaH2 PO4, pH 6.0), then adding excessive amount of compound (A) and shaking the mixed solution at room temperature (15° C.~20° C.) for 5 days, centrifuging the solution, filtering the supernatant by use of cotton stoppers, and subsequently measuring the concentration of compound (A) contained in the filtrate with a high-speed liquid chromatography.

persistence rate ([4]; 60° C.-3 days, pH 4.0, with α-cyclodextrin): 101.2%
persistence rate ([4]; 60° C.-3 days, pH 5.0, with α-cyclodextrin): 102.6%
persistence rate ([4]; 60° C.-3 days, pH 6.0, with α-cyclodextrin): 102.5%
persistence rate ([4]; 60° C.-3 days, pH 7.0, with α-cyclodextrin): 93.3%
persistence rate ([4]; 60° C.-5 days, pH 4.0, with α-cyclodextrin): 102.5%
persistence rate ([4]; 60° C.-5 days, pH 5.0, with α-cyclodextrin): 99.5%
persistence rate ([4]; 60° C.-5 days, pH 6.0, with α-cyclodextrin): 102.8%
persistence rate ([4]; 60° C.-5 days, pH 7.0, with α-cyclodextrin): 87.6%
persistence rate ([4]; Room temp.-5 days, pH 4.0, with α-cyclodextrin): 99.6%
persistence rate ([4]; Room temp.-5 days, pH 5.0, with α-cyclodextrin): 103.0%
persistence rate ([4]; Room temp.-5 days, pH 6.0, with α-cyclodextrin): 99.4%
persistence rate ([4]; Room temp.-5 days, pH 7.0, with α-cyclodextrin): 99.1%
Molecule: CC1=C(C)C(=O)C(CCCCC#CCCCC#CCO)=C(C)C1=O [Compound (A)]
inhibition of production of SRS-A or LTB4 (in words) [1]: inhibit the production of SRS-A or LTB4
effect on experimental allergic asthma (in words) [2]: showing experimental allergic asthma
solubility to water [3]: less than 10 ng/ml
5-riboxygenase inhibition (in words) (5-riboxygenase): selective inhibitor for 5-riboxygenase
effect on experimental allergic asthma (in words) [5]: showing experimental allergic asthma

solubility-enhancing effect relative to phosphoric acid buffer ([6]; compound (A), versus phosphoric acid buffer having pH 6): 1000 times
Molecule: OC[C@H]1O[C@@H]2O[C@H]3[C@H](O)[C@@H](O)[C@@H](O[C@H]4[C@H](O)[C@@H](O)[C@@H](O[C@H]5[C@H](O)[C@@H](O)[C@@H](O[C@H]6[C@H](O)[C@@H](O)[C@@H](O[C@H]7[C@H](O)[C@@H](O)[C@@H](O[C@H]1[C@H](O)[C@H]2O)O[C@@H]7CO)O[C@@H]6CO)O[C@@H]5CO)O[C@@H]4CO)O[C@@H]3CO [α-cyclodextrin]
enhancement of solubility of compound (A) (in words) [6]: remarkably enhances the solubility of compound (A) without impairing its stability; also recorded: highly advantageous effect; also recorded: prominent enhancement of solubility

Molecule: OC[C@H]1O[C@@H]2O[C@H]3[C@H](O)[C@@H](O)[C@@H](O[C@H]4[C@H](O)[C@@H](O)[C@@H](O[C@H]5[C@H](O)[C@@H](O)[C@@H](O[C@H]6[C@H](O)[C@@H](O)[C@@H](O[C@H]7[C@H](O)[C@@H](O)[C@@H](O[C@H]8[C@H](O)[C@@H](O)[C@@H](O[C@H]9[C@H](O)[C@@H](O)[C@@H](O[C@H]1[C@H](O)[C@H]2O)O[C@@H]9CO)O[C@@H]8CO)O[C@@H]7CO)O[C@@H]6CO)O[C@@H]5CO)O[C@@H]4CO)O[C@@H]3CO [γ-cyclodextrin, reference compound]
enhancement of solubility of compound (A) (in words) [6]: do not show any intended effect; also recorded: can hardly enhance the solubility

solubility-enhancing effect relative to phosphoric acid buffer ([6]; pH 6): 1000 times
Molecule: dimethyl-β-cyclodextrin
